# Article PMC8449414, “Rational design of ASCT2 inhibitors using an integrated experimental-computational approach” (Proceedings of the National Academy of Sciences of the …, 2021)
# Tests used:
# Format in all cases: cell-based
# rASCT2 [1] = target: T1, rASCT2 (Rattus norvegicus, UniProt D3ZJ25); assay: Electrophysiology: inhibition of leak anion current in transfected HEK293 cells; settings: for inhibition of the leak anion current (in words): concentration range tested up to 200 µM, Ki could not be obtained; for Km: substrate dose response of anion current, rat ASCT2-expressing HEK293 cells, read-out: apparent Km
# T1 construct: expressed in transfected cells; host or cells: HEK293 (ATCC CRL-11268), transient transfection
# T1 sequence (D3ZJ25 1-555): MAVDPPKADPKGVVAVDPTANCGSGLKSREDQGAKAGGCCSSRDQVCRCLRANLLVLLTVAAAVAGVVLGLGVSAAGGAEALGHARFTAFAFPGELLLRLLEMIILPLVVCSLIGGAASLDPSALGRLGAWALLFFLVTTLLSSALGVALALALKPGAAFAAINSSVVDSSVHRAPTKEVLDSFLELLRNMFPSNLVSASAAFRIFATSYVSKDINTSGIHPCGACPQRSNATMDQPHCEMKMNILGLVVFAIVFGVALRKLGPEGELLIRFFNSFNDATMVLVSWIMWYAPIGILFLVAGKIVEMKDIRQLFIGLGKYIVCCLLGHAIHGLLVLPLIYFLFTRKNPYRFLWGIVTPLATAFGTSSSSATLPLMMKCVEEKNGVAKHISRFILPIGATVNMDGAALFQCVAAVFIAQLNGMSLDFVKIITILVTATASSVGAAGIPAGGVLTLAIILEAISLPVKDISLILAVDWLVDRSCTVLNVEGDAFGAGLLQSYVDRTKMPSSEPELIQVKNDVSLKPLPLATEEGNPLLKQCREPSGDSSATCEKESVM
# Protocol: (§1) Cell culture and transfection
# (§2) Human embryonic kidney 293 (HEK293, ATCC CRL -11268) cells were cultured in DMEM media supplemented with 10% (v/v) fetal bovine serum (FBS), 2 mM glutamine, 1% penicillin streptomycin solution, 1 mM sodium pyruvate and non -essential amino acids. Cells were maintained at 370C in a fully humidified atmosphere containing 5% CO2. rASCT2, hASCT2, hASCT1, EAAT1, EAAT2, EAAT3, EAAT5 and YFP complementary DNAs were each used to transiently transfect HEK293 using POLYPLUS Jet-prime transfection reagent. Cells were analyzed using electrophysiological techniques 24-40 hours after transfection.
# (§3) Electrophysiological techniques
# (§4) Electrophysiological experiments were performed as described previously 1,2. Stock solutions of inhibitor was prepared in dimethyl sulfoxide (DMSO) up to 100 mM.
# (§5) Dilutions to working concentrations were made using external buffer. The highest
# hASCT2 = target: T2, hASCT2 (Homo sapiens, UniProt Q15758); assay: as above; settings: HEK293 cells, 0 mV, 130 mM NaSCN internal, 140 mM NaCl external; No current = no inhibition of anion leak current up to highest concentration tested (§ 20-50, || 100-400, # 1500-2500 µM); read-out: Binding affinity Ki (apparent Ki)
# T2 construct: expressed in transfected cells; host or cells: HEK293 (ATCC CRL-11268), transient transfection
# T2 sequence (Q15758 1-541): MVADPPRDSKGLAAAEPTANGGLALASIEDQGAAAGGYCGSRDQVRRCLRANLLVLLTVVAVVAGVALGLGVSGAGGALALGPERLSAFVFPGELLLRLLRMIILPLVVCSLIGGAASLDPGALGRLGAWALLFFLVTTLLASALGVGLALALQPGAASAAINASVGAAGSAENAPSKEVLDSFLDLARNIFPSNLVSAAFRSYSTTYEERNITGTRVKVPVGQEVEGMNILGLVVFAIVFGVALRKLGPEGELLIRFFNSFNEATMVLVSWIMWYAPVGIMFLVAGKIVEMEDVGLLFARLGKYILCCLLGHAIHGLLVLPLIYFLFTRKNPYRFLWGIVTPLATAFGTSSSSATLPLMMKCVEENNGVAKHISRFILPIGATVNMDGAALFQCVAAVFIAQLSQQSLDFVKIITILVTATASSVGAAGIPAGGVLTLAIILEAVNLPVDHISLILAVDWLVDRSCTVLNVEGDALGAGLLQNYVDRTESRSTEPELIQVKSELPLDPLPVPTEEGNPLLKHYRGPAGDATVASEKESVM
# Protocol: as §1, §2, §3, §4, §5
# rASCT2 [2] = target: T1, rASCT2; assay: Inhibitor dissociation kinetics by ligand displacement with alanine (rapid solution exchange); settings: 5 mM alanine rapidly applied, no inhibitor (control), 0 mV
# Protocol: Fig. 2. […] (A) Electrophysiological recordings obtained after application of alanine (red trace) and increasing concentrations of Lc-BPE (black traces). The times of application of alanine or Lc-BPE are shown by a gray bar (top). (B and C) Lc-BPE inhibitor dose–response relationships for rASCT2 and hASCT2, respectively. […] Currents were normalized to the current recorded after application of 10 µM inhibitor concentration. (D) Inhibition of glutamine uptake (5 µM external concentration) in the presence of varying concentration of Lc-BPE and 5 µM glutamine measured in proteoliposomes reconstituted with purified hASCT2. […] Errors bars represent SEM from at least two biologically independent measurements. (E) Current recorded after rapid solution exchange from extracellular buffer (control, gray bar, black trace) to a solution containing buffer + 5 mM alanine (white bar). For the red trace, the cell was preincubated with 10 µM Lc-BPE (red bar, red trace) followed by rapid application of 5 mM alanine. All current recordings were performed at 0 mV in the presence of 130 mM NaSCN internal and 140 mM NaCl external (homoexchange) solutions. […]
# To test this, we measured the dissociation kinetics of Lc-BPE using a ligand displacement approach. First, rASCT2-expressing cells were preincubated with a saturating solution of Lc-BPE (10 µM), and subsequently the inhibitor was displaced using a supersaturating concentration of the substrate L-alanine (5 mM) (Fig. 2 E and F).
smiles,measurement,setting,value
O=C(O[C@H]1CN[C@@H](C(=O)O)C1)c1ccc(-c2ccccc2)cc1 [Dc-BPE],inhibition of the leak anion current (in words),rASCT2 [1],too small at high compound concentrations
O=C(O[C@@H]1CN[C@@H](C(=O)O)C1)c1ccc(-c2ccccc2)cc1 [Dt-BPE],inhibition of the leak anion current (in words),rASCT2 [1],unspecific
O=C(O[C@H]1CN[C@H](C(=O)O)C1)c1ccc(-c2ccccc2)cc1 [Lt-BPE],Ki,"rASCT2 [1]; HEK293 cells, 0 mV, 130 mM NaSCN internal, 140 mM NaCl external, No current = no inhibition of anion leak current up to highest concentration tested (§ 20-50, || 100-400, # 1500-2500 µM), read-out: Binding affinity Ki (apparent Ki)",232 ± 44 µM
same,Ki,hASCT2,205 ± 27 µM
"C[C@H](N)C(=O)O [alanine, L-alanine, reference compound]",Km,rASCT2 [1]; 0 mV,318 ± 17 µM
same,rate constant of the current rise,rASCT2 [2],24.6 ± 5.2 s⁻¹
same,rate constant of the current rise,rASCT2 [2]; listed as Alanine,24 s⁻¹
"NC(=O)CC[C@H](N)C(=O)O [glutamine, L-glutamine, reference compound]",Km,rASCT2 [1]; 0 mV,233 ± 41 µM
